Results: patent US11965122B2, “Method for visually enhancing the experience of an audience during a performance” (PROLUME, LTD., priority 2012, dated 2024)

How the values were obtained:
[1] = Brightness of ultraviolet producing Coelenterazine analog
Description: Diagnosis of conjunctiva pathology and corneal scratches and other acute ocular emergencies such as foreign objects is best performed using an ultraviolet lamp and fluorescein dye. However there are situations, such as camping, or in poorer nations where electricity and ultraviolet lamps are not available. Another embodiment of this invention is a kit containing fluorescein dye, and a CARP manufactured using a ultraviolet producing Coelenterazine analog such as 400a or better because it is much brighter, is methoxy-eCoelenterazine analog contained and stabilized within a freeze dried CARP which can be used for eye examinations in the field.

[2] = system: Renilla muelleri Luciferase; test: Luminescent activity of Renilla muelleri Luciferase with Coelenterazine analogues; type: biochemical; details: integrated over 10 sec
Description: FIG. 21 is luminescent activity of Renilla muelleri Luciferase with methoxy eCTZ and methoxy eCTZf.

[3] = system: calcium activated photoprotein (CAP); details: cited from earlier work; for RLC*: relative to native = 1.00; for Relative Intensity †: relative to native = 1
Rabbit conjunctiva = test: Coelenterazine applied directly in Rabbit conjunctiva; type: in vivo; details: multiple sets applied directly in Rabbit conjunctiva, even at high concentrations
Description: Denuded and scratched corneal surfaces should release more calcium then a sealed intact healthy cornea and a CAP may be used alone or in conjunction with fluorescein dye to reveal the exact location of the foreign body or severity of the ocular corneal scratch.

For Methoxy-e-Coelenterazine [Methoxy eCTZ], the “brightness compared with 400a” value [1] was “much brighter” and the “light-output relative to methoxy eCTZf” value [2] was “approx. two-fold”.
For O=c1c(Cc2ccc(O)cc2)nc2c(CC3CCCC3)[nH]c(-c3ccc(O)cc3)cn1-2 [cp], the “Half-Rise Time ‡” value [3] is given as 2 to 5 ms, the “RLC*” value [3] is given as 0.63 and the “Relative Intensity †” value [3] is given as 28.
In the case of O=c1c(Cc2ccc(F)cc2)nc2c(Cc3ccccc3)[nH]c(-c3ccc(O)cc3)cn1-2 [f], the “Half-Rise Time ‡” value [3] is listed as 6 to 30 ms, the “RLC*” value [3] is listed as 0.80 and the “Relative Intensity †” value [3] is listed as 20.
For Coelenterazine-Iodide, the “duration of light emission” value ([3]; CAP manufactured with the analog, delayed spring-opening, over tens of minutes) is given as “prolongs light emission”.
For O=c1c(Cc2ccccc2)nc2c(CC3CCCC3)[nH]c(-c3ccc(O)cc3)cn1-2 [hcp], the “Half-Rise Time ‡” value [3] is given as 2 to 5 ms, the “RLC*” value [3] is given as 0.65 and the “Relative Intensity †” value [3] is given as 500.
In the case of O=c1c(Cc2ccccc2)nc2c(Cc3ccccc3)[nH]c(-c3ccc(O)cc3)cn1-2 [h], the “Half-Rise Time ‡” value [3] is listed as 6 to 30 ms, the “RLC*” value [3] is listed as 0.75 and the “Relative Intensity †” value [3] is listed as 16.
For Oc1ccc(Cc2nc3c(Cc4ccccc4)nc(-c4ccc(O)cc4)cn3c2O)cc1 [Coelenterazine], the ocular injury (Rabbit conjunctiva) is given as “failed to produce any ocular injury”, the “Half-Rise Time ‡” value [3] is given as 6 to 30 ms and the “RLC*” value [3] is given as 1.00. For the same compound, the “Relative Intensity †” value [3] was 1.
